The source of these data is patent publication US10947289B2, “Glyco-modified atrial natriuretic peptide” (priority 2013, dated 2021).

This experiment addresses T1, human GC-A (Homo sapiens, UniProt P16066).
T1 construct: expressed in transfected cells; host or cells: CHO cells
T1 sequence (P16066 33-1061): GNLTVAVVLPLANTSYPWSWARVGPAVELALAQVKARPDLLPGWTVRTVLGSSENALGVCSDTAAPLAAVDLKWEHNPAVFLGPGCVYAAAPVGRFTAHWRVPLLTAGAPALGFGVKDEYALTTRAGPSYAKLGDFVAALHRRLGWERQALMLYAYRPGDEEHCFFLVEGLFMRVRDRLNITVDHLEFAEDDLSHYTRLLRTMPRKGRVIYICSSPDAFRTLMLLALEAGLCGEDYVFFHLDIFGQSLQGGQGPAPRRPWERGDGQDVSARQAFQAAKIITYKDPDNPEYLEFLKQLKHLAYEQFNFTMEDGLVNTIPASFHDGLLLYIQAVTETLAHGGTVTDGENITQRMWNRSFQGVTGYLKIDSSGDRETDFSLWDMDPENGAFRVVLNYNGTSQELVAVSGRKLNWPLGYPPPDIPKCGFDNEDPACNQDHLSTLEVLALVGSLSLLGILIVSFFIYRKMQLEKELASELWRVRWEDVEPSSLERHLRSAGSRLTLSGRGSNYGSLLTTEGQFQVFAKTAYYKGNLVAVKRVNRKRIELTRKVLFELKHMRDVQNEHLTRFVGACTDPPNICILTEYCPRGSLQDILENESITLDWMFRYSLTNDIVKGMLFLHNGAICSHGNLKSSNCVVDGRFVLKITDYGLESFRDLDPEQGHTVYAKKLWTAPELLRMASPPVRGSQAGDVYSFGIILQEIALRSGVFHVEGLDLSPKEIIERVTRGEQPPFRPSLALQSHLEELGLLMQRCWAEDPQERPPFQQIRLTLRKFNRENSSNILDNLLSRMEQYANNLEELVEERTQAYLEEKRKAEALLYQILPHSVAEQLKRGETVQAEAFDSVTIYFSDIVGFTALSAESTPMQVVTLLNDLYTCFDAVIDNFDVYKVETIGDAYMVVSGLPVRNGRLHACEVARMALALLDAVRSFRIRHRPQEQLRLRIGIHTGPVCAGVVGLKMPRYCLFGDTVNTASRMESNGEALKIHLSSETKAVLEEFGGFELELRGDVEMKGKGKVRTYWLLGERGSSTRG
The experiment is described as follows: cGMP elevating activity in CHO/human GC-A cells (Test Example 1). Type of experiment: cell-based. The method in brief: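 cGMP in lysates was read by HTRF after a 15 min peptide exposure of GC-A-expressing CHO cells in a CO2 incubator, following 10 min room-temperature preincubation with 1.6 mM IBMX in KRB. T/C values were normalised between solvent wells (0) and 1 nM ANP wells (1).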
In turn, `CC[C@H](C)[C@@H]1NC(=O)[C@H](CCCNC(=N)N)NC(=O)[C@H](CC(=O)O)NC(=O)[C@H](CCSC)NC(=O)[C@H](CCCNC(=N)N)NC(=O)CNC(=O)CNC(=O)[C@H](Cc2ccccc2)NC(=O)[C@@H](NC(=O)[C@H](CO)NC(=O)[C@H](CO)NC(=O)[C@H](CCCNC(=N)N)NC(=O)[C@H](CCCNC(=N)N)NC(=O)[C@H](CC(C)C)NC(=O)[C@H](CO)NC(=O)CCOCCOCCOCCOCCNC(=O)[C@H](CC(=O)N[C@@H]2O[C@H](CO)[C@@H](O[C@@H]3O[C@H](CO)[C@@H](O[C@@H]4O[C@H](CO[C@H]5O[C@H](CO)[C@@H](O)[C@H](O)[C@@H]5O[C@@H]5O[C@H](CO)[C@@H](O[C@@H]6O[C@H](CO)[C@H](O)[C@H](O)[C@H]6O)[C@H](O)[C@H]5NC(C)=O)[C@@H](O)[C@H](O[C@H]5O[C@H](CO)[C@@H](O)[C@H](O)[C@@H]5O[C@@H]5O[C@H](CO)[C@@H](O[C@@H]6O[C@H](CO)[C@H](O)[C@H](O)[C@H]6O)[C@H](O)[C@H]5NC(C)=O)[C@@H]4O)[C@H](O)[C@H]3NC(C)=O)[C@H](O)[C@H]2NC(C)=O)NC(=O)CO[C@@H]2O[C@H](CO)[C@@H](O[C@@H]3O[C@H](CO)[C@@H](O[C@@H]4O[C@H](CO[C@H]5O[C@H](CO)[C@@H](O)[C@H](O)[C@@H]5O[C@@H]5O[C@H](CO)[C@@H](O[C@@H]6O[C@H](CO)[C@H](O)[C@H](O)[C@H]6O)[C@H](O)[C@H]5NC(C)=O)[C@@H](O)[C@H](O[C@H]5O[C@H](CO)[C@@H](O)[C@H](O)[C@@H]5O[C@@H]5O[C@H](CO)[C@@H](O[C@@H]6O[C@H](CO)[C@H](O)[C@H](O)[C@H]6O)[C@H](O)[C@H]5NC(C)=O)[C@@H]4O)[C@H](O)[C@H]3NC(C)=O)[C@H](O)[C@H]2NC(C)=O)CSSC[C@@H](C(=O)N[C@@H](CC(N)=O)C(=O)N[C@@H](CO)C(=O)N[C@@H](Cc2ccccc2)C(=O)N[C@@H](CCCNC(=N)N)C(=O)N[C@@H](Cc2ccc(O)cc2)C(=O)O)NC(=O)CNC(=O)[C@H](CC(C)C)NC(=O)CNC(=O)[C@H](CO)NC(=O)[C@H](CCC(N)=O)NC(=O)[C@H](C)NC(=O)CNC1=O` [Compound 2-21, AG(9)-(AG(9)-)Asn-PEG(3)-hANP(1-28)] gave an EC50 of 0.097 nM.

Turning to `CC[C@H](C)[C@@H]1NC(=O)[C@H](CCCNC(=N)N)NC(=O)[C@H](CC(=O)O)NC(=O)[C@H](CCSC)NC(=O)[C@H](CCCNC(=N)N)NC(=O)CNC(=O)CNC(=O)[C@H](Cc2ccccc2)NC(=O)[C@@H](NC(=O)[C@H](CO)NC(=O)[C@H](CO)NC(=O)[C@H](CCCNC(=N)N)NC(=O)[C@H](CCCNC(=N)N)NC(=O)[C@H](CC(C)C)NC(=O)[C@H](CO)NC(=O)CCOCCOCCOCCOCCNC(=O)CO[C@@H]2O[C@H](CO)[C@@H](O[C@@H]3O[C@H](CO)[C@@H](O[C@@H]4O[C@H](CO[C@H]5O[C@H](CO)[C@@H](O)[C@H](O)[C@@H]5O[C@@H]5O[C@H](CO)[C@@H](O[C@@H]6O[C@H](CO[C@]7(C(=O)O)C[C@H](O)[C@@H](NC(C)=O)[C@H]([C@H](O)[C@H](O)CO)O7)[C@H](O)[C@H](O)[C@H]6O)[C@H](O)[C@H]5NC(C)=O)[C@@H](O)[C@H](O[C@H]5O[C@H](CO)[C@@H](O)[C@H](O)[C@@H]5O[C@@H]5O[C@H](CO)[C@@H](O[C@@H]6O[C@H](CO[C@]7(C(=O)O)C[C@H](O)[C@@H](NC(C)=O)[C@H]([C@H](O)[C@H](O)CO)O7)[C@H](O)[C@H](O)[C@H]6O)[C@H](O)[C@H]5NC(C)=O)[C@@H]4O)[C@H](O)[C@H]3NC(C)=O)[C@H](O)[C@H]2NC(C)=O)CSSC[C@@H](C(=O)N[C@@H](CC(N)=O)C(=O)N[C@@H](CO)C(=O)N[C@@H](Cc2ccccc2)C(=O)N[C@@H](CCCNC(=N)N)C(=O)N[C@@H](Cc2ccc(O)cc2)C(=O)NCCOCCOCCOCCOCCC(=O)NCCO[C@@H]2O[C@H](CO)[C@@H](O[C@@H]3O[C@H](CO)[C@@H](O[C@@H]4O[C@H](CO[C@H]5O[C@H](CO)[C@@H](O)[C@H](O)[C@@H]5O[C@@H]5O[C@H](CO)[C@@H](O[C@@H]6O[C@H](CO[C@]7(C(=O)O)C[C@H](O)[C@@H](NC(C)=O)[C@H]([C@H](O)[C@H](O)CO)O7)[C@H](O)[C@H](O)[C@H]6O)[C@H](O)[C@H]5NC(C)=O)[C@@H](O)[C@H](O[C@H]5O[C@H](CO)[C@@H](O)[C@H](O)[C@@H]5O[C@@H]5O[C@H](CO)[C@@H](O[C@@H]6O[C@H](CO[C@]7(C(=O)O)C[C@H](O)[C@@H](NC(C)=O)[C@H]([C@H](O)[C@H](O)CO)O7)[C@H](O)[C@H](O)[C@H]6O)[C@H](O)[C@H]5NC(C)=O)[C@@H]4O)[C@H](O)[C@H]3NC(C)=O)[C@H](O)[C@H]2NC(C)=O)NC(=O)CNC(=O)[C@H](CC(C)C)NC(=O)CNC(=O)[C@H](CO)NC(=O)[C@H](CCC(N)=O)NC(=O)[C@H](C)NC(=O)CNC1=O` [Compound 2-24, SG-PEG(3)-hANP(1-28)-PEG(3)-SG], the EC50 amounted to 0.54 nM.

Consider `CC[C@H](C)[C@@H]1NC(=O)[C@H](CCCNC(=N)N)NC(=O)[C@H](CC(=O)O)NC(=O)[C@H](CCSC)NC(=O)[C@H](CCCNC(=N)N)NC(=O)CNC(=O)CNC(=O)[C@H](Cc2ccccc2)NC(=O)[C@@H](NC(=O)[C@H](CO)NC(=O)[C@H](CO)NC(=O)[C@H](CCCNC(=N)N)NC(=O)[C@H](CCCNC(=N)N)NC(=O)[C@H](CC(C)C)NC(=O)[C@H](CO)NC(=O)CCOCCOCCOCCOCCNC(=O)[C@H](CC(=O)N[C@@H]2O[C@H](CO)[C@@H](O[C@@H]3O[C@H](CO)[C@@H](O[C@@H]4O[C@H](CO[C@H]5O[C@H](CO)[C@@H](O)[C@H](O)[C@@H]5O[C@@H]5O[C@H](CO)[C@@H](O)[C@H](O)[C@H]5NC(C)=O)[C@@H](O)[C@H](O[C@H]5O[C@H](CO)[C@@H](O)[C@H](O)[C@@H]5O[C@@H]5O[C@H](CO)[C@@H](O)[C@H](O)[C@H]5NC(C)=O)[C@@H]4O)[C@H](O)[C@H]3NC(C)=O)[C@H](O)[C@H]2NC(C)=O)NC(=O)CO[C@@H]2O[C@H](CO)[C@@H](O[C@@H]3O[C@H](CO)[C@@H](O[C@@H]4O[C@H](CO[C@H]5O[C@H](CO)[C@@H](O)[C@H](O)[C@@H]5O[C@@H]5O[C@H](CO)[C@@H](O)[C@H](O)[C@H]5NC(C)=O)[C@@H](O)[C@H](O[C@H]5O[C@H](CO)[C@@H](O)[C@H](O)[C@@H]5O[C@@H]5O[C@H](CO)[C@@H](O)[C@H](O)[C@H]5NC(C)=O)[C@@H]4O)[C@H](O)[C@H]3NC(C)=O)[C@H](O)[C@H]2NC(C)=O)CSSC[C@@H](C(=O)N[C@@H](CC(N)=O)C(=O)N[C@@H](CO)C(=O)N[C@@H](Cc2ccccc2)C(=O)N[C@@H](CCCNC(=N)N)C(=O)N[C@@H](Cc2ccc(O)cc2)C(=O)O)NC(=O)CNC(=O)[C@H](CC(C)C)NC(=O)CNC(=O)[C@H](CO)NC(=O)[C@H](CCC(N)=O)NC(=O)[C@H](C)NC(=O)CNC1=O` [Compound 2-22, AG(7)-(AG(7)-)Asn-PEG(3)-hANP(1-28)], for which the EC50 amounted to 0.08 nM.
